Test systems include K-562 leukemia; CAKI-1 renal; HCC-2998 colon; SK-MEL-28 melanoma; KM12 colon; SF-295 CNS; RXF 393 renal; A549 NSCLC; HCT-15 colon; OVCAR-5 ovarian.
Common to all, as to assay: NCI tumour cell line growth inhibition, 48 h

The structures appear in SMILES notation. “And” between values parts separate entries of the source, which are not always exact repeats. Equal entries are not always repeated.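 Test compounds were applied to cells in 96-well plates for 48 hours at 5 doses. GI50: concentration for 50% inhibition of growth. At the TGI there is no net growth.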 A value given as a limit tells only on which side of the number the result lay.

In the case of `C=C1SC(=Nc2ccccc2Cl)N(C(=O)c2sc3ccccc3c2Cl)C12CCCCC2`, the GI50 was 4.14 µM in the experiment with K-562 leukemia; 3.05 µM in the experiment on CAKI-1 renal; 7.27 µM in the experiment on HCC-2998 colon; greater than 100 µM in the experiment on SK-MEL-28 melanoma; 4.73 µM in the experiment with KM12 colon; 2.31 µM in the experiment with SF-295 CNS. Further, the GI50 is 15.2 µM in the experiment on RXF 393 renal, 4.31 µM with A549 NSCLC, 5.45 µM in the experiment with HCT-15 colon and 35.9 µM in the experiment on OVCAR-5 ovarian. Moreover, the TGI in the experiment with K-562 leukemia is greater than 100 µM; in the experiment with CAKI-1 renal it was greater than 100 µM; in the experiment on HCC-2998 colon, greater than 100 µM; in the experiment with SK-MEL-28 melanoma it was greater than 100 µM; in the experiment with KM12 colon, greater than 100 µM; with SF-295 CNS it was 23 µM. Further, the TGI is 88.7 µM in the experiment on RXF 393 renal, greater than 100 µM in the experiment on A549 NSCLC, greater than 100 µM with HCT-15 colon and greater than 100 µM with OVCAR-5 ovarian.

As for `Nc1ccc(COC(O)CN2CCCCC2)cc1[N+](=O)[O-]` (stereo unspecified), the TGI in the experiment on K-562 leukemia, in the experiment with CAKI-1 renal, in the experiment on HCC-2998 colon, in the experiment with SK-MEL-28 melanoma, in the experiment on KM12 colon and with SF-295 CNS was greater than 100 µM in each case. In addition, the TGI in the experiment with RXF 393 renal, in the experiment on A549 NSCLC, with HCT-15 colon and in the experiment on OVCAR-5 ovarian was greater than 100 µM in each case.

For the compound `Cc1nc2ccccn2c1NC(=O)NNC(=S)Nc1ccc(F)cc1`, the GI50 with K-562 leukemia, in the experiment on CAKI-1 renal, with HCC-2998 colon, in the experiment with SK-MEL-28 melanoma, in the experiment with KM12 colon and with SF-295 CNS was greater than 100 µM in each case. For the same compound, the GI50 with RXF 393 renal, in the experiment with A549 NSCLC, in the experiment on HCT-15 colon and in the experiment with OVCAR-5 ovarian was greater than 100 µM in each case. In addition, the TGI in the experiment on K-562 leukemia, in the experiment with CAKI-1 renal, with HCC-2998 colon, in the experiment on SK-MEL-28 melanoma, in the experiment with KM12 colon and in the experiment on SF-295 CNS was greater than 100 µM each time. Further, the TGI in the experiment on RXF 393 renal, in the experiment on A549 NSCLC, in the experiment on HCT-15 colon and in the experiment on OVCAR-5 ovarian was greater than 100 µM in each case.

With `O=C(/C=C1\C(=O)N(Cc2ccccc2)c2ccccc21)c1ccc(OCCN2CCCCC2)cc1`, the GI50 was 1.84 µM with K-562 leukemia; 1.78 µM with CAKI-1 renal; 1.86 µM with HCC-2998 colon; 2.09 µM in the experiment with SK-MEL-28 melanoma; 5.9 µM in the experiment with KM12 colon; 12.7 µM in the experiment on SF-295 CNS. Moreover, the GI50 with RXF 393 renal is 1.65 µM; with A549 NSCLC it was 8.42 µM; with HCT-15 colon, 1.71 µM; with OVCAR-5 ovarian, 1.76 µM. The TGI stood at 6.53 µM in the experiment with K-562 leukemia; 4.02 µM with CAKI-1 renal; 3.47 µM with HCC-2998 colon; 4.36 µM in the experiment with SK-MEL-28 melanoma; 20.8 µM with KM12 colon; 25.9 µM in the experiment on SF-295 CNS. Moreover, the TGI is 3.17 µM with RXF 393 renal, 21.6 µM in the experiment with A549 NSCLC, 3.31 µM in the experiment with HCT-15 colon and 3.6 µM with OVCAR-5 ovarian.

As to `C[C@]12CC[C@H]3[C@@H](CC4SC(N)=NC45C/C(=N/NC(N)=O)CC[C@]35C)[C@@H]1CCC2=O` (stereo partly specified), the GI50 is 1.81 µM in the experiment with K-562 leukemia; 1.77 µM in the experiment on CAKI-1 renal; 1.74 µM in the experiment on HCC-2998 colon; 1.63 µM in the experiment on SK-MEL-28 melanoma; 2.01 µM in the experiment with KM12 colon; 1.61 µM in the experiment with SF-295 CNS. Moreover, the GI50 was 1.61 µM with RXF 393 renal, 2.02 µM with A549 NSCLC, 1.46 µM in the experiment with HCT-15 colon and 1.71 µM in the experiment with OVCAR-5 ovarian. In addition, the TGI in the experiment with K-562 leukemia was determined as 5.08 µM; in the experiment on CAKI-1 renal it was 3.64 µM; in the experiment on HCC-2998 colon, 3.28 µM; in the experiment on SK-MEL-28 melanoma it was 3.1 µM; in the experiment on KM12 colon, 4.02 µM; with SF-295 CNS, 3.03 µM. The TGI with RXF 393 renal was 3.23 µM; in the experiment with A549 NSCLC, 3.89 µM; with HCT-15 colon, 2.86 µM; in the experiment on OVCAR-5 ovarian, 3.19 µM.

For the compound `ClCc1ccccc1Cn1cnc2c(Cl)ncnc21`, the GI50 in the experiment on K-562 leukemia was 1.2 µM; in the experiment with CAKI-1 renal it was 1.83 µM; with HCC-2998 colon, 1.67 µM; in the experiment with SK-MEL-28 melanoma, 2.31 µM; in the experiment with KM12 colon it was 16.6 µM; in the experiment on SF-295 CNS it was 10.5 µM. Also, the GI50 was 0.442 µM in the experiment with RXF 393 renal, 7.73 µM in the experiment with A549 NSCLC, 2.07 µM in the experiment with HCT-15 colon and 2.46 µM with OVCAR-5 ovarian. Besides, the TGI in the experiment with K-562 leukemia was 5.13 µM; in the experiment on CAKI-1 renal, 4.14 µM; with HCC-2998 colon, 3.54 µM; in the experiment with SK-MEL-28 melanoma it was 5.48 µM; with KM12 colon it was 33.2 µM; with SF-295 CNS, 23.3 µM. Moreover, the TGI amounted to 2.32 µM in the experiment on RXF 393 renal, 25.8 µM in the experiment on A549 NSCLC, 4.71 µM in the experiment with HCT-15 colon and 6.53 µM with OVCAR-5 ovarian.

In the case of `Cc1c(N)nc(C(CC(N)=O)NCC(N)C(N)=O)nc1C(=O)NC(C(=O)NC(C)C(O)C(C)C(=O)NC(C(=O)NCCc1nc(-c2nc(C(=O)NCCCNC(C)c3ccccc3)cs2)cs1)C(C)O)C(OC1OC(CO)C(O)C(O)C1OC1OC(CO)C(O)C(OC(N)=O)C1O)c1cnc[nH]1` (stereo unspecified), the GI50 is 11.8 µM in the experiment on K-562 leukemia; 2 µM with CAKI-1 renal; 44.1 µM in the experiment with KM12 colon; 0.115 µM with SF-295 CNS; 0.63 µM in the experiment with A549 NSCLC; 26.8 µM in the experiment with HCT-15 colon. Also, the GI50 with OVCAR-5 ovarian was 2.21 µM. Also, the TGI in the experiment with K-562 leukemia was 50 µM and > 100 µM; with HCC-2998 colon it was 50 µM and > 100 µM; with SK-MEL-28 melanoma, 50 µM; in the experiment with KM12 colon it was 50 µM and > 100 µM; in the experiment on SF-295 CNS it was 5.22 µM and 3.46 µM; in the experiment on RXF 393 renal, 2.82 µM. Moreover, the TGI was 50 µM and > 100 µM in the experiment with A549 NSCLC; 50 µM and > 100 µM in the experiment on HCT-15 colon; 47.2 µM and > 100 µM in the experiment on OVCAR-5 ovarian.
